From patent EP0391644B1, “Aryl-substituted rhodanine derivatives” (ELI LILLY AND COMPANY, priority 1989, dated 1990)

System: adjuvant-induced arthritis
Assay: Developing Adjuvant-Induced Arthritis Test in Rats
Assay type: in vivo, male Lewis-Wistar rats
Conditions: AUC of uninjected paw volumes, Days 16 through 30
[1] = Rattus norvegicus, po, 720 h, 50 mg/kg P.O. x 29, read-out: % Inhibition of Uninjected Paw Volume Inflammation

| Molecule | inhibition in vivo at 50 mg/kg [1] [%] | also measured |
| --- | --- | --- |
| CCCc1cc(C=C2SCN(C)C2=O)cc(CCC)c1O [Example 56, 5-[(4-hydroxy-3,5-dipropylphenyl)methylene]-3-methyl-4-thiazolidinone] | 38.2 |  |
| CN1CCN(N2CSC(=Cc3cc(C(C)(C)C)c(O)c(C(C)(C)C)c3)C2=O)CC1 [Example 43, 5-{[3,5-bis(1,1-dimethylethyl)-4-hydroxyphenyl]methylene}-3-(4-methyl-1-piperazinyl)-4-thiazolidinone] | 36 |  |
| Cc1cc(C=C2SCN(N)C2=O)cc(C(C)(C)C)c1O [Example 59, 3-amino-5-{[3-(1,1-dimethylethyl)-4-hydroxy-5-methylphenyl]methylene}-4-thiazolidinone] | 19.8 |  |
| Cc1cc(C=C2SCN(C)C2=O)cc(C)c1O [Example 68, 5-[(4-hydroxy-3,5-dimethylphenyl)methylene]-3-methyl-4-thiazolidinone] | 6.5 |  |
| CC(C)(C)c1cc(CC2SC(=S)NC2=O)cc(C(C)(C)C)c1O (stereo not shown) [Example 8, 5-{[3,5-bis(1,1-dimethylethyl)-4-hydroxyphenyl]methyl}-2-thioxo-4-thiazolidinone] | 4 |  |
| CN(C)N1C(=O)C(=Cc2cc(C(C)(C)C)c(O)c(C(C)(C)C)c2)SC1=S [Example 19, 5-{[3,5-bis(1,1-dimethylethyl)-4-hydroxyphenyl]methylene}-3-dimethylamino-2-thioxo-4-thiazolidinone] | 20.7 |  |
| CN1C(=O)C(=Cc2cc(C(C)(C)C)c(O)c(C(C)(C)C)c2)SC1O (stereo not shown) [Example 71, 5-{[3,5-bis(1,1-dimethylethyl)-4-hydroxyphenyl]methylene}-2-hydroxy-3-methyl-4-thiazolidinone] | 48.2 |  |
| CC(=O)OCCCc1cc(C=C2SCN(C)C2=O)cc(CCCOC(C)=O)c1O [Example 63, 5-{[3,5-bis[3-(acetyloxy)propyl]-4-hydroxyphenyl]methylene}-3-methyl-4-thiazolidinone] | 9.8 |  |
| CCCc1cc(C=C2SCNC2=O)cc(CCC)c1O [Example 57, 5-[(4-hydroxy-3,5-dipropylphenyl)methylene]-4-thiazolidinone] | 44.1 |  |
| CC(C)(C)c1cc(C=C2SCN(C3CC3)C2=O)cc(C(C)(C)C)c1O [Example 20, 5-{[3,5-bis(1,1-dimethylethyl)-4-hydroxyphenyl]methylene}-3-cyclopropyl-4-thiazolidinone] | 36 |  |
| CC(=O)OCCCc1cc(C=C2SCN(N(C)C)C2=O)cc(CCCOC(C)=O)c1O [Example 64, 5-{[3,5-bis[3-(acetyloxy)propyl]-4-hydroxyphenyl]methylene}-3-(dimethylamino)-4-thiazolidinone] | 5.5 |  |
| 5-{[3,5-bis(1,1-dimethylethyl)-4-hydroxyphenyl]methylene}-3-[2-(4-morpholinyl)ethyl]amino-4-thiazolidinone [Example 49] |  | % Inhibition of Uninjected Paw Volume Inflammation (50 mg/kg P.O. x 29): 36% |
| CN(C)CCN1CSC(=Cc2cc(C(C)(C)C)c(O)c(C(C)(C)C)c2)C1=O [Example 29, 5-{[3,5-bis(1,1-dimethylethyl)-4-hydroxyphenyl]methylene}-3-[2-(dimethylamino)ethyl]-4-thiazolidinone] | 49 |  |
| CCNN1CSC(=Cc2cc(C(C)(C)C)c(O)c(C(C)(C)C)c2)C1=O [Example 52, 5-{[3,5-bis(1,1-dimethylethyl)-4-hydroxyphenyl]methylene}-3-(ethylamino)-4-thiazolidinone] |  | inhibition in vivo at 25 mg/kg (Rattus norvegicus, po, 720 h, 25 mg/kg P.O. x 29, read-out: % Inhibition of Uninjected Paw Volume Inflammation): 45% |
| CC(C)(C)c1cc(C=C2SCN(N3CCOCC3)C2=O)cc(C(C)(C)C)c1O [Example 45, 5-{[3,5-bis(1,1-dimethylethyl)-4-hydroxyphenyl]methylene}-3-(4-morpholinyl)-4-thiazolidinone] | 36 |  |
| CNN1CSC(=Cc2cc(C(C)(C)C)c(O)c(C(C)(C)C)c2)C1=O [Example 47, 5-{[3,5-bis(1,1-dimethylethyl)-4-hydroxyphenyl]methylene}-3-(methylamino)-4-thiazolidinone] | 69.3 |  |
